Assay results taken from patent US9562053B2, “Benzo-fused heterocyclic derivatives useful as agonists of GPR120” (Janssen Pharmaceutica NV, priority 2013, dated 2017).

Target: T1, Human GPR120 short form (Homo sapiens, UniProt Q5NUL3)
T1 construct: expressed in transfected cells
T1 sequence (Q5NUL3 1-361): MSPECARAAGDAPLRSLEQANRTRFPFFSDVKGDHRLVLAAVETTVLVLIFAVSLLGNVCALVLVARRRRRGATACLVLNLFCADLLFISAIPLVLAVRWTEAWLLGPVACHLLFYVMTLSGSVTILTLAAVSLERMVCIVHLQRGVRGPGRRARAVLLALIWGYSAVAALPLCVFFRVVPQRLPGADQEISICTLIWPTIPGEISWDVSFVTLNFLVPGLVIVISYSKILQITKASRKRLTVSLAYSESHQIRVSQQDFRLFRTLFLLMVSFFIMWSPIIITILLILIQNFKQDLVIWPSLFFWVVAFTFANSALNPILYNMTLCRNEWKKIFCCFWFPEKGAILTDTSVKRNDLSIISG
Assay: Human GPR120 in Calcium Flux Assay, Procedure Calcium A (2500 cells/well)
Type: cell-based
Excerpt: This in vitro assay serves to assess test compound agonist activity against the short splice variant (SVS with Accession number NM_001195755.1 confirmed by sequencing data) of the GPR120 receptor. The Human Short splice variant #2 (NM_001195755.1) is missing an in-frame coding exon compared to variant 1 (the Human Long splice variant NM_181745.3), resulting in a shorter isoform (GPR120-S) lacking a 16 aa protein segment compared to isoform GPR120-L. The assay platform utilizes HEK-293 cells stably transfected to express the Human GPR120 short form. These cells are first loaded with the Ca^+2 sensitive dye, Fluo-4 NW. Upon stimulation, intracellular released Ca^+2 can bind to the dye and alter its fluorescence intensity. This increase in fluorescence signal, and thus the flux in intracellular [Ca^+2], is detected and quantitated by fluorescence imaging using a FLIPR reader. The effect of the agonist is measured as a function of concentration and used to calculate an EC50 based upon a response curve.
In this procedure 2500 cells/well were employed.
A Human GPR120 clone (Genbank accession number NM_001195755.1) was placed into the pcDNA3.1 mammalian expression vector carrying the neomycin resistance gene. A stable mammalian cell was generated by placing the above clone into a HEK293 background. Clonal cells responding to long chain fatty acids had expression levels of GPR120 confirmed by RT-qPCR. Human HEK-GPR120 cells were cultured in Dulbecco's Modified Eagle's Medium (DMEM)/F12 medium supplemented with 10% fetal bovine serum (FBS), 1% L-Glutamine and 1% penicillin/streptomycin and 0.5 mg/ml G-418. Cells were split 2 times a week to keep the cells in the log-phase growth.
In preparation for the assay, HEK cells stably transfected with Human GPR120 (2.5K cells per well in 25 uL growth medium) were seeded into 384-well plates and then incubated overnight (37° C., 5% CO2). The next day, the media was changed to 20 μl assay buffer and the cell starved for 1 h at 37° C. The dye loading solution (2× dye) was prepared using 10 ml assay buffer, 100 μl of 250 mM probenecid, 1 bottle of Component A, and 20 μl of dye in DMSO. Twenty μl of the 2× dye loading buffer was then added to each well. The plates were incubated at 37° C. for 30 min, then at room temperature for an additional 15 minutes, before performing the assay on FLIPR.
Test compounds were prepared in assay buffer (2 μl of test compound+198 μl assay buffer, final DMSO in assay plate is 0.2%) at the desired concentration, more particularly at 100 μM, 50 μM, 25 μM, 12.5 μM, 6.25 μM, 3.125 μM, 1.562 μM, 0.781 μM, 0.391 μM, 0.195 μM, 0.098 μM, 0.049 μM, 0.024 μM and 0.012 μM.
The assay was performed on a FLIPR plate reader using the following parameters. Baseline was read for 10 seconds at 1 sec intervals. The program was set to transfer 10 μL of ligand from compound plate to cell plate after baseline reading. Aspiration was executed at: 10 μl/sec speed, 4.6 μl height; Dispensing was executed at: 30 μl/sec speed, 45 μl height. After compound addition, each well was read for 300 sec, with measurements collected at 1 sec intervals.
The kinetic data from the FLIPR was based upon a 5 minute window for data collection. The fluorescence of each sample well was used for individual calculations of a normalized RFU value, which was defined as maximum response minus the minimum response. The normalized fluorescence reading (RFU) was calculated as follows: RFU=Fmax−Fmin
The data were fitted to a sigmoidal dose-response curve with a variable Hill slope (<2) using nonlinear regression with GraphPad Prism 5.0 to calculate the EC50 values. The Fitting Equation was: Y=Bottom+(Top−Bottom)/(1+10^((LogEC50−X)*HillSlope)), where X is the log of the concentration and Y is the response.

Q: `CCc1cc2cc(F)cc(COc3cc(C)c(CCC(=O)O)cn3)c2o1` [Compound 33, 3-{6-[(2-Ethyl-5-fluoro-1-benzofuran-7-yl)methoxy]-4-methylpyridin-3-yl}propanoic acid] was tested. Which EC50 did it give?
A: 1110 nM

Q: Which EC50 does the source give for `Cc1oc2c(COc3c(Br)cc(CCC(=O)O)c(C)c3C)cc(OC(F)(F)F)cc2c1Br` [Compound 120, 3-(5-Bromo-4-{[3-bromo-2-methyl-5-(trifluoromethoxy)-1-benzofuran-7-yl]methoxy}-2,3-dimethylphenyl)propanoic acid] here?
A: 1540 nM

Q: With `Cc1cc2c(COc3c(F)cc(CCC(=O)O)cc3F)cc(Cl)cc2s1` [Compound 102, 3-{4-[(6-Chloro-2-methyl-1-benzothiophen-4-yl)methoxy]-3,5-difluorophenyl}propanoic acid] as the molecule, how does the EC50 read?
A: > 5000 nM

Q: With `CCc1cc2cc(OC(F)(F)F)cc(COc3cc(CC(C)C)c(CCC(=O)O)cc3F)c2o1` [Compound 53, 3-[4-{[2-Ethyl-5-(trifluoromethoxy)-1-benzofuran-7-yl]methoxy}-5-fluoro-2-(2-methylpropyl)phenyl]propanoic acid] as the molecule, how does the EC50 read?
A: 673 nM

Q: `Cc1c(CCC(=O)O)ccc(OCc2cc(F)cc3cc(CO)oc23)c1C` [Compound 14, 3-(4-{[5-Fluoro-2-(hydroxymethyl)-1-benzofuran-7-yl]methoxy}-2,3-dimethylphenyl)propanoic acid] was tested. Which EC50 did it give?
A: 1320 nM

Q: `Cc1cc2c(COc3ccc(CCC(=O)O)c(C)c3C)cc(Cl)cc2s1` [Compound 101, 3-{4-[(6-Chloro-2-methyl-1-benzothiophen-4-yl)methoxy]-2,3-dimethylphenyl}propanoic acid] was tested. Which EC50 did it give?
A: 3200 nM

Q: How did the EC50 turn out when `Cc1cc2cc(C#CCS(C)(=O)=O)cc(COc3ccc(CCC(=O)O)c(C)c3C)c2o1` [Compound 99, 3-[2,3-Dimethyl-4-({2-methyl-5-[3-(methylsulfonyl)prop-1-yn-1-yl]-1-benzofuran-7-yl}methoxy)phenyl]propanoic acid] was run?
A: > 5000 nM

Q: How did the EC50 turn out when `Cc1nc2c(COc3ccc(CCC(=O)O)c(C)c3C)cc(Cl)cc2o1` [Compound 95, 3-{4-[(6-Chloro-2-methyl-1,3-benzoxazol-4-yl)methoxy]-2,3-dimethylphenyl}propanoic acid] was run?
A: 134 nM

Q: For `Cc1cc2cc(CCCS(C)(=O)=O)cc(COc3ccc(CCC(=O)O)c(C)c3C)c2o1` [Compound 100, 3-[2,3-Dimethyl-4-({2-methyl-5-[3-(methylsulfonyl)propyl]-1-benzofuran-7-yl}methoxy)phenyl]propanoic acid], which EC50 is on record?
A: > 5000 nM

Q: How did the EC50 turn out when `Cc1c(CCC(=O)O)ccc(OCc2cc(F)cc3cc(CC4CCCC4)oc23)c1C` [Compound 19, 3-(4-{[2-(Cyclopentylmethyl)-5-fluoro-1-benzofuran-7-yl]methoxy}-2,3-dimethylphenyl)propanoic acid] was run?
A: 1680 nM

Q: For `COCCc1cc2cc(F)cc(COc3ccc(CCC(=O)O)c(C)c3C)c2o1` [Compound 10, 3-(4-{[5-Fluoro-2-(2-methoxyethyl)-1-benzofuran-7-yl]methoxy}-2,3-dimethylphenyl)propanoic acid], which EC50 is on record?
A: 424 nM

Q: Which EC50 does the source give for `CCc1cc2cc(C#N)cc(COc3ccc(CCC(=O)O)c(C)c3C)c2o1` [Compound 123, 3-(4-((5-cyano-2-ethylbenzofuran-7-yl)methoxy)-2,3-dimethylphenyl)propanoic acid] here?
A: 1410 nM

Q: Which EC50 does the source give for `Cc1c(CCC(=O)O)ccc(OCc2cc(F)cc3cc(Cc4ccccc4)oc23)c1C` [Compound 20, 3-{4-[(2-Benzyl-5-fluoro-1-benzofuran-7-yl)methoxy]-2,3-dimethylphenyl}propanoic acid] here?
A: 5290 nM

Q: Which EC50 does the source give for `Cc1cc2c(COc3c(F)cc(CCCO)cc3F)cc(Cl)cc2s1` [Compound 103, 3-{4-[(6-Chloro-2-methyl-1-benzothiophen-4-yl)methoxy]-3,5-difluorophenyl}propan-1-ol] here?
A: 3000 nM

Q: How did the EC50 turn out when `Cc1cc2cc(Cl)cc(COc3c(F)cc(CCC(=O)O)cc3F)c2s1` [Compound 92, 3-{4-[(5-Chloro-2-methyl-1-benzothiophen-7-yl)methoxy]-3,5-difluorophenyl}propanoic acid] was run?
A: 417 nM

Q: With `CCc1cc2cc3c(c(COc4ccc(CCC(=O)O)c(C)c4C)c2o1)CC(C)(C)O3` [Compound 30, 3-{4-[(6-Ethyl-2,2-dimethyl-2,3-dihydrobenzo[1,2-b:4,5-b′]difuran-4-yl)methoxy]-2,3-dimethylphenyl}propanoic acid] as the molecule, how does the EC50 read?
A: 759 nM

Q: Which EC50 does the source give for `CCc1cc2cc(OC(F)(F)F)cc(COc3cc(CCC(C)C)c(CCC(=O)O)cc3F)c2o1` [Compound 51, 3-[4-{[2-Ethyl-5-(trifluoromethoxy)-1-benzofuran-7-yl]methoxy}-5-fluoro-2-(3-methylbutyl)phenyl]propanoic acid] here?
A: 392 nM

Q: `Cc1c(CCC(=O)O)ccc(OCc2cc(OC(F)(F)F)cc3cc(CCO)oc23)c1C` [Compound 94, 3-(4-{[2-(2-Hydroxyethyl)-5-(trifluoromethoxy)-1-benzofuran-7-yl]methoxy}-2,3-dimethylphenyl)propanoic acid] was tested. Which EC50 did it give?
A: 274 nM

Q: `Cc1c(CCC(=O)O)ccc(OCc2cc(F)cc3cc(CCO)oc23)c1C` [Compound 15, 3-(4-{[5-Fluoro-2-(2-hydroxyethyl)-1-benzofuran-7-yl]methoxy}-2,3-dimethylphenyl)propanoic acid] was tested. Which EC50 did it give?
A: 4750 nM

Q: How did the EC50 turn out when `Cc1c(CCC(=O)O)ccc(OCc2cc(F)cc3cc(CCC(C)C)oc23)c1C` [Compound 9, 3-(4-{[5-Fluoro-2-(3-methylbutyl)-1-benzofuran-7-yl]methoxy}-2,3-dimethylphenyl)propanoic acid] was run?
A: 2750 nM

Q: Which EC50 does the source give for `C#Cc1cc(COc2ccc(CCC(=O)O)c(C)c2C)c2oc(CCC)cc2c1` [Compound 38, 3-{4-[(5-Ethynyl-2-propyl-1-benzofuran-7-yl)methoxy]-2,3-dimethylphenyl}propanoic acid] here?
A: 28 nM

Q: For `CCCc1cc2cc(Cl)cc(COc3cc(C)c(CCC(=O)O)cn3)c2o1` [Compound 34, 3-{6-[(5-Chloro-2-propyl-1-benzofuran-7-yl)methoxy]-4-methylpyridin-3-yl}propanoic acid], which EC50 is on record?
A: 1020 nM
